Columns and labels:
AY27 cancer cell line [1] = experiment: In vitro dark toxicity, Presto Blue cell kill; type: cell-based; conditions: 0.4 mg/mL human transferrin, 30 minutes
Method: (§1) The photosensitizer was pre-mixed with 0.4 mg/mL human transferrin and incubated for 1 hour at 37° C. In control group (no additional transferrin), equivalent volume of no-transferrin medium was added. The cells were subsequently incubated with the pre-mixes for 30 minutes (FIG. 12A) or 90 minutes (FIG. 12B). After that, the medium was replaced with a fresh one (without photosensitizer and transferrin). On the next day (21 hours post-irradiation), viability of the cells was measured using Presto Blue viability assay, and percent of cell kill was calculated.
as §1, with “minutes.” for “minutes (FIG. 12A) or 90 minutes (FIG. 12B).”

AY27 cancer cell line [2] = experiment: In vitro PDT in hypoxia; type: cell-based; conditions: 635 nm, 90 J cm−2, hypoxic 0.5-0.1% O2, 0.4 mg/mL human transferrin
Method: The cells were incubated for 90 minutes in premix of the photosensitizer and 0.4 mg/mL human transferrin (or without transferrin, as a control group) as described above for in vitro PDT. Dark toxicity and PDT effect of the photosensitizers on AY27 cell line under 635 nm (90 J cm−2) irradiation in the absence and presence of transferrin in normoxic (FIGS. 17A, 17B) and hypoxic (0.5-0.1% O2, FIGS. 17C, 17D) conditions. The cells were incubated with the photosensitizer and transferrin for 90 minutes. After that, the cells were irradiated and the medium was replaced with a fresh one (without photosensitizer and transferrin). On the next day (21 hours post-irradiation), viability of the cells was measured using Presto Blue viability assay, and percent of cell kill was calculated. The PDT effect shown is a result of subtraction of “photosensitizer alone” and “light alone” cell kill from the total PDT cell kill.
The cells were incubated for 90 minutes in premix of the photosensitizer and 0.4 mg/mL human transferrin (or without transferrin, as a control group) as described above for in vitro PDT. […] On the next day (21 hours post-irradiation), viability of the cells was measured using Presto Blue viability assay, and percent of cell kill was calculated. […]

[3] = In vivo tissue uptake, tumor versus muscle; conditions: 10 mg/kg i.v.; transferrin 1 mg/kg
Method: Transferrin was dissolved in 40% PG in phosphate buffer (pH=7.0)+100 mM NaCl (0.1 mg/100 uL) and added to the photosensitizer solution (to achieve 10 mg/kg dose). The mixture was incubated for 1 hour prior to injection, and 100 uL of the mixture was injected i.v. to each animal.

Transferrin = Transferrin (Homo sapiens, UniProt P02787); experiment: Binding to transferrin by absorption spectra; conditions: transferrin 0.2 mg/mL; photosensitizer 10 uM
Method: Transferrin (0.2 mg/mL) was incubated with the photosensitizers (10 uM) and absorption spectra were obtained.
Binding of Ruthenium and Ruthenium-Rhodium-based photosensitizers to transferrin is characterized by a characteristic signature: an increased peak of absorption at 280 nm and a new peak in 400-500 nm range.

Sequence of Transferrin (P02787 20-698): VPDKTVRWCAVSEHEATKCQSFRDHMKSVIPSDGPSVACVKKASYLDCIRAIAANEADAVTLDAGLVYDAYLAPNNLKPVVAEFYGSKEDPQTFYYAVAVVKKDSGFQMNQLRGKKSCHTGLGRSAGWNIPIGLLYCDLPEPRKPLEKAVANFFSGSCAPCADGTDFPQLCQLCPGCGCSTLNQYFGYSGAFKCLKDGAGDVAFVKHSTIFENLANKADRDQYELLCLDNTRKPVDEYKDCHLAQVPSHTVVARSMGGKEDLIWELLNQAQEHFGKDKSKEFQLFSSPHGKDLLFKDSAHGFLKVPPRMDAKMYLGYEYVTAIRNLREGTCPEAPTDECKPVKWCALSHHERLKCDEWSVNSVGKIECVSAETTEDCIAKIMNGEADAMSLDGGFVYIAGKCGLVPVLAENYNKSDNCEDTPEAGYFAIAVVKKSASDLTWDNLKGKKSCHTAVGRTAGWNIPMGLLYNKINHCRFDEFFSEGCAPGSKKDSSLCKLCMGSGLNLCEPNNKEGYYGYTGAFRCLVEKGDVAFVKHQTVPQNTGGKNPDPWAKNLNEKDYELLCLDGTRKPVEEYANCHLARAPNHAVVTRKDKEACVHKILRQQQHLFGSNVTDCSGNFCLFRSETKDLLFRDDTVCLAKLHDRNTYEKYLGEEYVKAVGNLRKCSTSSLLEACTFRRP

[Os+2].c1ccc2cc3nc4c5cccnc5c5ncccc5c4nc3cc2c1.c1ccc2nc(-c3ccc4ccccc4n3)ccc2c1.c1ccc2nc(-c3ccc4ccccc4n3)ccc2c1 [TLDOsH2dppn]
dark toxicity, effect of transferrin (AY27 cancer cell line [1]): decreases dark toxicity
PDT effect under hypoxic conditions, effect of transferrin (AY27 cancer cell line [2]): ensured PDT effect
uptake of the photosensitizer into tissues, effect of transferrin [3]: increases uptake
transferrin binding (absorption spectra) (Transferrin): transferrin binding
